Source: patent US11235001B2, “RUNX inhibitor” (KYOTO UNIVERSITY, priority 2016, dated 2022)

Assays:
[1] = test system: E-selectin, P-selectin, Tie2, ICAM-1, VCAM-1, Jagged-1; assay: qRT-PCR of adhesion molecule genes in HUVEC; format: cell-based, human; conditions: 0.5 μM, 1 μM, or 5 μM, 6 hours
[2] = test system: E-selectin; assay: In vivo E-selectin expression in bone marrow endothelial cells; design: species or system mouse; conditions: normal mice, 320 μg/kg, 6 times over 2 weeks, 24 hours after last administration
Description: Changes in expression levels of E-selectin in bone marrow endothelial cells by Chb-M′ administration were examined in vivo. To normal mice, DMSO (control) or Chb-M′ was administered 6 times over 2 weeks (320 μg/kg per administration). Twenty-four hours after the last administration (in a state in which Chb-M′ had been eliminated from the body of the mouse), the femur and tibia were harvested, from them bone marrow hematopoietic cells were removed, and endothelial cells were collected and subjected to FACS analysis. CD45 negative cells (bone marrow cells without bone marrow hematopoietic cells) were gated, and a ratio between CD31 positive cells (vascular endothelial marker-positive) and Lin-negative CD45-negative CD31-positive E-selectin-positive cells (E-selectin-positive bone marrow vascular endothelial cells) was analyzed by FACS.

[3] = test system: GATA2, E2F5, and AR; assay: qRT-PCR of prostatic adenocarcinoma-related factors in PC-3; format: cell-based, human; conditions: PC-3, 5 μM, 6 hours
Description: (§1) A total RNA was isolated with RNeasy mini kit (Qiagen) and reverse transcribed with Reverse script kit (TOYOBO) to generate cDNA. Real-time quantitative polymerase chain reaction (PCR) was carried out with 7500 Real-Time PCR System (Applied Biosystems) according to the manufacturer's instructions. Results were normalized to GAPDH levels. Relative expression levels were calculated using the 2-ΔΔCt method.
To prostatic adenocarcinoma cell line PC-3, 5 μM Chb-M′ was administered. After 6 hours, the mRNA levels of GATA2, E2F5, and AR (androgen receptors), which are important genes for proliferation of prostate cancer cells, were evaluated by qRT-PCR (see the above-described “Real-time quantitative PCR (qRT-PCR)”). As a control, DMSO was administered. In the figure, the mRNA expression levels of GATA2, E2F5, and AR are shown as values relative to those in the DMSO-treated group. As evident from FIG. 45, the expressions of GATA2, E2F5, and AR were suppressed by Chb-M′ at transcriptional levels.

[4] = test system: MV4-11 cells; assay: Xenograft AML mouse model (MV4-11); format: in vivo; conditions: NOG mice with MV4-11, day 14
[5] = test system: SOS1; assay: qRT-PCR of SOS1 in MKN45 gastric cancer cells; format: cell-based, human; conditions: MKN45, 1 μM, 6 hours
Description: as §1
To the MKN45 gastric cancer cell line, 1 μM of Chb-M′ was administered. After 6 hours, the mRNA level of SOS1 was evaluated by RT-PCR method using qRT-PCR (see the above-described “Real-time quantitative PCR (qRT-PCR)”). As a control, DMSO was administered. In the figure, the mRNA expression level of SOS1 is shown as a value relative to that in the DMSO-treated group.

[6] = test system: BCR-ABL fusion protein; assay: Western blotting of BCR-ABL fusion protein in CML and PhALL cells; format: cell-based, human; conditions: 3 μM or 1 μM, 24 hours
Description: Cells were washed twice with ice cold phosphate-buffered saline (PBS) and harvested in protein lysis buffer [50 mM Tris (pH 7.4), 100 mM NaCl, 0.1 mM EDTA, 1 mM phenylmethylsulfonyl fluoride, 1 mM β-glycerophosphate, 2.5 mM sodium pyrophosphate, 1 mM Na3VO4, lx protease inhibitor (Roche) and PhosSTOP (Roche)]. Whole cell extracts were separated by SDS-polyacrylamide gel electrophoresis (SDS-PAGE) and electrotransferred onto polyvinylidene difluoride membranes. Membranes were probed with the following antibodies: anti-Ctip1 antibody (Abcam, ab19487), anti-TRIM24 antibody (Bethyl Laboratories, Inc), anti-RUNX1 antibody (A-2), anti-GAPDH (FL-335), anti-p21 (C-19), anti-Bax (N-20) antibodies (Santa Cruz Biotechnology, Inc.), anti-RUNX2, anti-RUNX3, anti-p53 antibodies (Cell Signaling Technology), anti-CBFβ antibody (FL-182, Santa Cruz Biotechnology, Inc.), anti-cleaved caspase-3 antibody (5A1E, Cell Signaling Technology), anti-PARP antibody (46D11, Cell Signaling Technology). For secondary antibodies, anti-rabbit IgG, or anti-mosue IgG HRP-linked antibodies (Cell Signaling Technology) were used. Blots were detected using Chemi-Lumi One Super (nacalai tesque, Inc.) and ChemiDoc™ XRS+ Imager (Bio-Rad Laboratories, Inc.), as recommended by the manufacturers. Protein levels were quantified with Image Lab Software (Bio-Rad Laboratories, Inc.).
To BV173 cells, MYL cells, SU-Ph2 cells, and SU/SR cells, 3 μM or 1 μM of Chb-M′ were administered. After 24 hours, proteins were extracted, and then subjected to the Western blotting method (see the above-described “Immunoblotting”) using an ABL antibody to confirm expressions of BCR-ABL fusion protein at protein levels. As a control, DMSO was administered.

[7] = test system: ROR1 and ROR2; assay: qRT-PCR of ROR1 and ROR2 in DAOY; format: cell-based, human; conditions: 1 μM, 6 hours
Description: as §1
To medulloblastoma cell line DAOY, 1 μM Chb-M′ was administered. After 6 hours, the mRNA levels of cancer promoting factors ROR1 and ROR2, which are important for medulloblastoma, were evaluated by qRT-PCR (see the above-described “Real-time quantitative PCR (qRT-PCR)”). As a control, DMSO was administered. In the figure, the mRNA expression levels of ROR1 and ROR2 are shown as values relative to those in the DMSO-treated group. As evident from FIG. 48, the expressions of ROR family were suppressed by Chb-M′ at transcriptional levels.

[8] = test system: BCL11A, TRIM24, p53, p21, BAX, PUMA and MDM2; assay: qRT-PCR of p53 suppressors and p53 target genes in MV4-11 cells; format: cell-based, human; conditions: 1 μM, 6 hours
Description: as §1

[9] = test system: Mig6; assay: Western blotting of Mig6 in lung adenocarcinoma cells; format: cell-based, human; conditions: 1 μM, 24 hours
Description: Cells were washed twice with ice cold phosphate-buffered saline (PBS) and harvested in protein lysis buffer [50 mM Tris (pH 7.4), 100 mM NaCl, 0.1 mM EDTA, 1 mM phenylmethylsulfonyl fluoride, 1 mM β-glycerophosphate, 2.5 mM sodium pyrophosphate, 1 mM Na3VO4, lx protease inhibitor (Roche) and PhosSTOP (Roche)]. Whole cell extracts were separated by SDS-polyacrylamide gel electrophoresis (SDS-PAGE) and electrotransferred onto polyvinylidene difluoride membranes. […] Blots were detected using Chemi-Lumi One Super (nacalai tesque, Inc.) and ChemiDoc™ XRS+ Imager (Bio-Rad Laboratories, Inc.), as recommended by the manufacturers. Protein levels were quantified with Image Lab Software (Bio-Rad Laboratories, Inc.).
To LU99A cells and A549 cells, 1 μM Chb-M′ was administered. After 24 hours, the expression of Mig6 protein was evaluated by the Western blotting method (see the above-described “Immunoblotting”). […]

[10] = test system: LU99A; assay: Cell viability, lung adenocarcinoma LU99A; format: cell-based, human; conditions: LU99A (EGFR wild-type p53 wild-type), 48 hours

## CN(C)CCCNC(=O)c1cc(NC(=O)c2cc(NC(=O)c3cc(NC(=O)c4cc(NC(=O)CCCNC(=O)c5nc(NC(=O)c6nc(NC(=O)c7cc(NC(=O)c8nc(NC(=O)CCNC(=O)CCCc9ccc(N(CCCl)CCCl)cc9)cn8C)cn7C)cn6C)cn5C)cn4C)cn3C)cn2C)cn1C [Chb-M′]
[1]
  E-selectin, P-selectin, and VCAM-1 mRNA levels: markedly suppressed
[2]
  E-selectin expression levels in bone marrow endothelial cells: significantly decreased
[3]
  Expressions of GATA2, E2F5, and AR (mRNA): suppressed
[4]
  H&E staining of bone marrow: homogeneity was lost
  hCD45 staining of bone marrow (human leukemia cells): most of the brown parts lost
[5]
  Expression of SOS1 (mRNA): suppressed
[6]; BV173 cells
  p210BCR-ABL fusion protein: lost
[6]; MYL cells
  p210BCR-ABL fusion protein: lost
[6]; SU-Ph2 cells
  p190BCR-ABL fusion protein: lost
[6]; SU/SR cells
  p190BCR-ABL fusion protein: lost
[7]
  Expressions of ROR family (ROR1 and ROR2 mRNA): suppressed
[8]
  Gene expressions of p53 suppressors BCL11A and TRIM24: down-regulated
  mRNA expression level of p53: unchanged
  mRNA expression levels of p21 and PUMA: increased
[9]; A549 cells
  Expression level of Mig6 protein: enhanced
[9]; LU99A cells
  Expression level of Mig6 protein: enhanced
[10]
  IC50 compared with the EGFR inhibitor (gefitinib): lower IC50 values
